Source: PubChem BioAssay (NCI)
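Five concentrations, 48 hours, 96-well plates. Here, GI50 denotes the concentration required for 50% inhibition of growth. Definition used: TGI = concentration required for complete inhibition of growth.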

Legend:
Assay in all cases: NCI tumour cell line growth inhibition, 48 h
HOP-92 NSCLC = test system: HOP-92 NSCLC
KM12 colon = test system: KM12 colon
HCT-116 colon = test system: HCT-116 colon
SK-MEL-5 melanoma = test system: SK-MEL-5 melanoma
PC-3 prostate = test system: PC-3 prostate
MOLT-4 leukemia = test system: MOLT-4 leukemia
T-47D breast = test system: T-47D breast
HCC-2998 colon = test system: HCC-2998 colon
MCF7 breast = test system: MCF7 breast
NCI-H226 lung = test system: NCI-H226 lung
U251 CNS = test system: U251 CNS
NCI-H460 lung = test system: NCI-H460 lung
SN12C renal = test system: SN12C renal
NCI/ADR-RES ovarian = test system: NCI/ADR-RES ovarian
SNB-19 CNS = test system: SNB-19 CNS
SK-MEL-28 melanoma = test system: SK-MEL-28 melanoma
UO-31 renal = test system: UO-31 renal
TK-10 renal = test system: TK-10 renal
MALME-3M melanoma = test system: MALME-3M melanoma
RXF 393 renal = test system: RXF 393 renal
LOX IMVI melanoma = test system: LOX IMVI melanoma
K-562 leukemia = test system: K-562 leukemia
OVCAR-3 ovarian = test system: OVCAR-3 ovarian
ACHN renal = test system: ACHN renal
SW-620 colon = test system: SW-620 colon
OVCAR-5 ovarian = test system: OVCAR-5 ovarian
SNB-75 CNS = test system: SNB-75 CNS
M14 melanoma = test system: M14 melanoma
CCRF-CEM leukemia = test system: CCRF-CEM leukemia

C=C1C(=O)O[C@H]2[C@H]1CC/C(COC(=O)NCCc1c[nH]c3ccccc13)=C\CC[C@@]1(C)O[C@@H]21
GI50 (HOP-92 NSCLC): 1270 nM
TGI (HOP-92 NSCLC): 3070 nM
GI50 (KM12 colon): 5410 nM
TGI (KM12 colon): 21400 nM
GI50 (HCT-116 colon): 1010 nM
TGI (HCT-116 colon): 2390 nM
GI50 (SK-MEL-5 melanoma): 2440 nM
TGI (SK-MEL-5 melanoma): 5950 nM
GI50 (PC-3 prostate): 3050 nM
TGI (PC-3 prostate): 13000 nM
GI50 (MOLT-4 leukemia): 1910 nM
TGI (MOLT-4 leukemia): 6590 nM
GI50 (T-47D breast): 1700 nM
TGI (T-47D breast): 4410 nM
GI50 (HCC-2998 colon): 1670 nM
TGI (HCC-2998 colon): 3180 nM
GI50 (MCF7 breast): 585 nM
TGI (MCF7 breast): 2260 nM
GI50 (NCI-H226 lung): 1800 nM
TGI (NCI-H226 lung): 3390 nM
GI50 (U251 CNS): 4880 nM
TGI (U251 CNS): 17100 nM
GI50 (NCI-H460 lung): 3820 nM
TGI (NCI-H460 lung): 16300 nM
GI50 (SN12C renal): 1200 nM
TGI (SN12C renal): 3150 nM
GI50 (NCI/ADR-RES ovarian): 2500 nM
TGI (NCI/ADR-RES ovarian): 11800 nM
GI50 (SNB-19 CNS): 6460 nM
TGI (SNB-19 CNS): 20200 nM
GI50 (SK-MEL-28 melanoma): 1380 nM
TGI (SK-MEL-28 melanoma): 3110 nM
GI50 (UO-31 renal): 1430 nM
TGI (UO-31 renal): 2730 nM
GI50 (TK-10 renal): 1920 nM
TGI (TK-10 renal): 3550 nM
GI50 (MALME-3M melanoma): 1940 nM
TGI (MALME-3M melanoma): 3820 nM
GI50 (RXF 393 renal): 1160 nM
TGI (RXF 393 renal): 2560 nM
GI50 (LOX IMVI melanoma): 788 nM
TGI (LOX IMVI melanoma): 2230 nM
GI50 (K-562 leukemia): 503 nM
TGI (K-562 leukemia): 10400 nM
GI50 (OVCAR-3 ovarian): 1040 nM
TGI (OVCAR-3 ovarian): 2310 nM
GI50 (ACHN renal): 1370 nM
TGI (ACHN renal): 2710 nM
GI50 (SW-620 colon): 1200 nM
TGI (SW-620 colon): 2810 nM
GI50 (OVCAR-5 ovarian): 2300 nM
TGI (OVCAR-5 ovarian): 5750 nM
GI50 (SNB-75 CNS): 8450 nM
TGI (SNB-75 CNS): 21800 nM
GI50 (M14 melanoma): 1440 nM
TGI (M14 melanoma): 3650 nM
GI50 (CCRF-CEM leukemia): 362 nM
